Assay results from PubChem BioAssay AID248 (DTP/NCI, 2004).
“And” between values parts separate entries of the source, which are not always exact repeats. Identical values can stand only once. Inconclusive results and toxic doses are left out. No stated cut-off is given here; in the data, active means T/C of 150% or more; inactive means T/C below 125%.

System: L1210 leukemia ip in BDF1 mice, survival T/C
Assay: NCI In Vivo Anticancer Drug Screen. Data for tumor model L1210 Leukemia (intraperitoneal) in B6D2F1 (BDF1) mice
Conditions: endpoint: mean survival time, higher = longer survival
Outline: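 Transplanted-tumor mice were given test agent; controls received vehicle only. Survival readings from the two groups were divided (treated over control).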

[1] = dose: 100.0 mg/kg/injection, schedule: Q04DX003 (ip), vehicle: saline
[2] = dose: 200.0 mg/kg/injection, schedule: Q04DX003 (ip), vehicle: saline
[3] = dose: 400.0 mg/kg/injection, schedule: Q04DX003 (ip), vehicle: saline
[4] = dose: 100.0 mg/kg/injection, schedule: Q04DX002 (ip), vehicle: Klucel (hydroxypropylcellulose) (HPC)
[5] = dose: 200.0 mg/kg/injection, schedule: Q04DX002 (ip), vehicle: Klucel (hydroxypropylcellulose) (HPC)
[6] = dose: 400.0 mg/kg/injection, schedule: Q04DX002 (ip), vehicle: Klucel (hydroxypropylcellulose) (HPC)
[7] = dose: 100.0 mg/kg/injection, schedule: Q04DX002 (ip), vehicle: saline with Tween-80
[8] = dose: 200.0 mg/kg/injection, schedule: Q04DX002 (ip), vehicle: saline with Tween-80
[9] = dose: 400.0 mg/kg/injection, schedule: Q04DX002 (ip), vehicle: saline with Tween-80
[10] = dose: 100.0 mg/kg/injection, schedule: Q04DX003 (ip), vehicle: Klucel (hydroxypropylcellulose) (HPC)
[11] = dose: 200.0 mg/kg/injection, schedule: Q04DX003 (ip), vehicle: Klucel (hydroxypropylcellulose) (HPC)
[12] = dose: 400.0 mg/kg/injection, schedule: Q04DX003 (ip), vehicle: Klucel (hydroxypropylcellulose) (HPC)
[13] = dose: 100.0 mg/kg/injection, schedule: Q01DX001 (ip), vehicle: Klucel (hydroxypropylcellulose) (HPC)
[14] = dose: 100.0 mg/kg/injection, schedule: Q01DX009 (ip), vehicle: Klucel (hydroxypropylcellulose) (HPC)
[15] = dose: 200.0 mg/kg/injection, schedule: Q01DX009 (ip), vehicle: Klucel (hydroxypropylcellulose) (HPC)
[16] = dose: 100.0 mg/kg/injection, schedule: Q01DX009 (ip), vehicle: saline
[17] = dose: 400.0 mg/kg/injection, schedule: Q01DX009 (ip), vehicle: saline
[18] = dose: 100.0 mg/kg/injection, schedule: Q04DX003 (ip), vehicle: saline with Tween-80
[19] = dose: 200.0 mg/kg/injection, schedule: Q04DX003 (ip), vehicle: saline with Tween-80
[20] = dose: 400.0 mg/kg/injection, schedule: Q04DX003 (ip), vehicle: saline with Tween-80
[21] = dose: 25.0 mg/kg/injection, schedule: Q04DX003 (ip), vehicle: saline with Tween-80
[22] = dose: 50.0 mg/kg/injection, schedule: Q04DX003 (ip), vehicle: saline with Tween-80

Measured: T/C

CCCCCCCCCCCCCCn1cnc2ncnc(Cl)c21
inactive: dose: 12.5 mg/kg/injection, schedule: Q01DX005 (ip), vehicle: other 104 % of control | dose: 25.0 mg/kg/injection, schedule: Q01DX005 (ip), vehicle: other 104 % of control | dose: 50.0 mg/kg/injection, schedule: Q01DX005 (ip), vehicle: other 103 % of control | dose: 100.0 mg/kg/injection, schedule: Q01DX005 (ip), vehicle: other 101 % of control | dose: 200.0 mg/kg/injection, schedule: Q01DX005 (ip), vehicle: other 96 % of control

Cc1cc(N(C)C)nc(SCc2ccc(F)cc2)n1
inactive: dose: 200.0 mg/kg/injection, schedule: Q01DX Z (ip), vehicle: methylcellulose (MC) 96 % of control

Cc1cc(=O)n(-c2ccccc2)n1C
inactive: [1] 104 % of control | [2] 106 % of control | [3] 106 % of control

NC(=S)N/N=C/c1[nH]c(=O)[nH]c(=O)c1Br
inactive: dose: 100.0 mg/kg/injection, schedule: Q01DX001 (ip), vehicle: saline with Tween-80 93 % of control | dose: 200.0 mg/kg/injection, schedule: Q01DX001 (ip), vehicle: saline with Tween-80 97 % of control | dose: 400.0 mg/kg/injection, schedule: Q01DX001 (ip), vehicle: saline with Tween-80 103 % of control

CCOc1ccc(/C=N/N=C(N)N)cc1OCC
inactive: dose: 62.5 mg/kg/injection, schedule: Q01DX Z (oral), vehicle: saline 110 % of control | dose: 125.0 mg/kg/injection, schedule: Q01DX Z (oral), vehicle: saline 114 % of control | dose: 250.0 mg/kg/injection, schedule: Q01DX Z (oral), vehicle: saline 91 % of control

O=C(/C=C/c1ccc2c(c1)OCO2)c1cccc([N+](=O)[O-])c1
inactive: [4] 93 % of control | [5] 104 % of control | [6] 100 % of control

N#C/C(=C\C1CC(Br)CC(Br)C1O)C1CCC([N+](=O)[O-])CC1 (stereo not drawn)
inactive: [7] 90 % of control | [8] 90 % of control | [9] 93 % of control

Nc1nc(N)nc(-c2ccccc2N=NN2CCOCC2)n1
inactive: [10] 103 % of control | [11] 101 % of control | [12] 101 % of control

O=C(Nc1cccc(C(F)(F)F)c1)Nc1ccc(Cl)cc1Cl
inactive: [13] 96 % of control | [14] 95 % of control and 108 % of control | [4] 95 % of control and 100 % of control | [10] 86 % of control | dose: 200.0 mg/kg/injection, schedule: Q01DX001 (ip), vehicle: Klucel (hydroxypropylcellulose) (HPC) 91 % of control | [15] 94 % of control and 104 % of control | [5] 100 % of control and 88 % of control | [11] 94 % of control | dose: 400.0 mg/kg/injection, schedule: Q01DX001 (ip), vehicle: Klucel (hydroxypropylcellulose) (HPC) 93 % of control | dose: 400.0 mg/kg/injection, schedule: Q01DX009 (ip), vehicle: Klucel (hydroxypropylcellulose) (HPC) 95 % of control and 97 % of control | [6] 98 % of control and 104 % of control | [12] 92 % of control

O=C(O)CNCc1cccc(Cl)c1
inactive: dose: 50.0 mg/kg/injection, schedule: Q01DX009 (ip), vehicle: saline 94 % of control | [16] 101 % of control | [1] 95 % of control | [2] 93 % of control | [17] 101 % of control | [3] 102 % of control

COc1cc2nc3occc3c(OC)c2c2c1OC(C(C)(C)O)C2 (stereo not drawn)
inactive: dose: 50.0 mg/kg/injection, schedule: Q01DX001 (ip), vehicle: carboxymethylcellulose (CMC) 98 % of control | dose: 100.0 mg/kg/injection, schedule: Q01DX001 (ip), vehicle: carboxymethylcellulose (CMC) 117 % of control | dose: 200.0 mg/kg/injection, schedule: Q01DX001 (ip), vehicle: carboxymethylcellulose (CMC) 93 % of control

Nc1nc(N)c(-c2ccc(Cl)c(Cl)c2)c(COc2ccc(CNS(=O)(=O)c3ccc(S(=O)(=O)F)cc3)cc2Cl)n1
inactive: dose: 25.0 mg/kg/injection, schedule: Q01DX001 (ip), vehicle: Klucel (hydroxypropylcellulose) (HPC) 94 % of control | dose: 50.0 mg/kg/injection, schedule: Q01DX001 (ip), vehicle: Klucel (hydroxypropylcellulose) (HPC) 94 % of control | [13] 96 % of control

CCOC(=O)c1nnc(-c2ccccc2)[nH]c1=O
inactive: dose: 50.0 mg/kg/injection, schedule: Q01DX009 (ip), vehicle: Klucel (hydroxypropylcellulose) (HPC) 92 % of control | [14] 103 % of control | [15] 103 % of control

CCN(CC)CCCNC(c1ccccc1)C(Cl)(Cl)Cl (stereo not drawn)
inactive: dose: 100.0 mg/kg/injection, schedule: Q01DX001 (ip), vehicle: saline 96 % of control

CC1=CCC2(C)C(=O)C1CC1=C2CC(C)(C)CC1=O (stereo not drawn)
inactive: [16] 92 % of control | [10] 101 % of control | dose: 200.0 mg/kg/injection, schedule: Q01DX009 (ip), vehicle: saline 94 % of control | [11] 98 % of control | [17] 101 % of control | [12] 98 % of control

Oc1cccc(C2=NNC(c3cccc(O)c3)=NN2)c1
inactive: dose: 100.0 mg/kg/injection, schedule: Q04DX003 (ip), vehicle: gum acacia 93 % of control | dose: 200.0 mg/kg/injection, schedule: Q04DX003 (ip), vehicle: gum acacia 89 % of control | dose: 400.0 mg/kg/injection, schedule: Q04DX003 (ip), vehicle: gum acacia 86 % of control

CNC(=O)Oc1ccc(SC)c(C)c1
inactive: dose: 0.37 mg/kg/injection, schedule: Q01DX009 (ip), vehicle: Klucel (hydroxypropylcellulose) (HPC) 94 % of control | dose: 0.75 mg/kg/injection, schedule: Q01DX009 (ip), vehicle: Klucel (hydroxypropylcellulose) (HPC) 97 % of control | dose: 1.5 mg/kg/injection, schedule: Q01DX009 (ip), vehicle: Klucel (hydroxypropylcellulose) (HPC) 102 % of control and 103 % of control | dose: 5.0 mg/kg/injection, schedule: Q01DX001 (ip), vehicle: carboxymethylcellulose (CMC) 86 % of control | dose: 10.0 mg/kg/injection, schedule: Q01DX001 (ip), vehicle: carboxymethylcellulose (CMC) 94 % of control

CN1CCC=C(CO)C1
inactive: [1] 97 % of control | [2] 107 % of control | [3] 103 % of control

O=C(CCCc1ccc(N(CCCl)CCCl)cc1)Nc1ccccc1
inactive: dose: 4.0 mg/kg/injection, schedule: Q12HX018 (ip), vehicle: Klucel (hydroxypropylcellulose) (HPC) 102 % of control | dose: 4.0 mg/kg/injection, schedule: Q12HX018 (ip), vehicle: other 103 % of control | dose: 6.0 mg/kg/injection, schedule: Q12HX018 (ip), vehicle: other 101 % of control | dose: 8.0 mg/kg/injection, schedule: Q12HX018 (ip), vehicle: Klucel (hydroxypropylcellulose) (HPC) 109 % of control | dose: 8.0 mg/kg/injection, schedule: Q12HX018 (ip), vehicle: other 103 % of control | dose: 16.0 mg/kg/injection, schedule: Q12HX018 (ip), vehicle: Klucel (hydroxypropylcellulose) (HPC) 104 % of control

O=C(CC(O)(C(F)(F)F)C(F)(F)F)c1ccc(F)cc1
inactive: [18] 94 % of control | [19] 92 % of control | [20] 103 % of control

CC1CC(C)(C)N=C(C(Cc2ccccc2)CC(O)c2ccccc2)O1 (stereo not drawn)
inactive: [21] 94 % of control | [22] 92 % of control | [18] 86 % of control and 90 % of control

O=C(N/N=C\c1c(Cl)cccc1Cl)N/N=C/c1c(Cl)cccc1Cl
inactive: [7] 89 % of control | [8] 99 % of control | [9] 95 % of control

O=C(Nc1ccc(F)cc1)c1cccc(C(=O)Nc2ccc(F)cc2)c1
inactive: [21] 96 % of control | [22] 93 % of control | [18] 95 % of control and 87 % of control

C=CCCCCn1c2ccccc2c2c(C)c3cnccc3c(C)c21
inactive: [18] 91 % of control | [19] 91 % of control | [20] 92 % of control

Cn1c(=S)sc2cc(Cl)ccc21
inactive: [18] 104 % of control | [19] 101 % of control | [20] 98 % of control

O=C(O)COc1ccccc1[N+](=O)[O-]
inactive: [4] 96 % of control | [5] 100 % of control | [6] 96 % of control

O=C(NNC(=S)NC1CC2C=CC1C2)c1cccnc1 (stereo not drawn)
inactive: [14] 111 % of control | [15] 101 % of control
